The record followed here is ChEMBL document CHEMBL1134838, “Structure-activity relationships at monoamine transporters and muscarinic receptors for N-substituted-3alpha-(3'-chloro-, 4'-chloro-, and 4',4''-dichloro-substituted-diphenyl)methoxytropanes” (J Med Chem, 2001).

For orientation: Ki means the dissociation constant of the complex between target and ligand, obtained from inhibition or displacement. Higher therefore signals lower affinity.

The target in test [1] is Sodium-dependent serotonin transporter (Rattus norvegicus, UniProt P31652). Nature of the test: Binding affinity for serotonin transporter was determined in vitro in rat brain using [3H]citalopram as radioligand. The test is classed as tissue-based.
Sequence of Sodium-dependent serotonin transporter (P31652 whole entry): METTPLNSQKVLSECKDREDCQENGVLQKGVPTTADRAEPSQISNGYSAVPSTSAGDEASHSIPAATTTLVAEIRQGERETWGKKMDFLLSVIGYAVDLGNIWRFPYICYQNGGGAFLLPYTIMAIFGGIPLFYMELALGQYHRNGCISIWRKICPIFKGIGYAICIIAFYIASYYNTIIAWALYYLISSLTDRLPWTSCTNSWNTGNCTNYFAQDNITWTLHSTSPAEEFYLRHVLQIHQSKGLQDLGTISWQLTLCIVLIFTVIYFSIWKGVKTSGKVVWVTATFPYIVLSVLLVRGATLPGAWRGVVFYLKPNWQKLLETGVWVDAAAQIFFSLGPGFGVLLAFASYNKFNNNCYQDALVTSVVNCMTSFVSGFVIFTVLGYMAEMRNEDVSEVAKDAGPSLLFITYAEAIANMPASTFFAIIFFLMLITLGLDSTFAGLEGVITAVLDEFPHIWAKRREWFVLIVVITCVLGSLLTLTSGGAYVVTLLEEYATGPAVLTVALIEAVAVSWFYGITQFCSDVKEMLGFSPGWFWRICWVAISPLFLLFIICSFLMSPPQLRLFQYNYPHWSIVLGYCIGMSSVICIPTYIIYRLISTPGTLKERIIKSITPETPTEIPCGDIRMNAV
Test [2] has as its target Norepinephrine transporter (Rattus norvegicus, UniProt Q9WTR4). The experiment in a line: Binding affinity for norepinephrine transporter in rat brain using [3H]-nisoxatine as radioligand. The test is classed as tissue-based.
In test [3] the target is Sodium-dependent dopamine transporter (Rattus norvegicus, UniProt P23977). Nature of the test: biochemical. The test is classed as tissue-based, Brain.
Sequence of Sodium-dependent dopamine transporter (P23977 whole entry): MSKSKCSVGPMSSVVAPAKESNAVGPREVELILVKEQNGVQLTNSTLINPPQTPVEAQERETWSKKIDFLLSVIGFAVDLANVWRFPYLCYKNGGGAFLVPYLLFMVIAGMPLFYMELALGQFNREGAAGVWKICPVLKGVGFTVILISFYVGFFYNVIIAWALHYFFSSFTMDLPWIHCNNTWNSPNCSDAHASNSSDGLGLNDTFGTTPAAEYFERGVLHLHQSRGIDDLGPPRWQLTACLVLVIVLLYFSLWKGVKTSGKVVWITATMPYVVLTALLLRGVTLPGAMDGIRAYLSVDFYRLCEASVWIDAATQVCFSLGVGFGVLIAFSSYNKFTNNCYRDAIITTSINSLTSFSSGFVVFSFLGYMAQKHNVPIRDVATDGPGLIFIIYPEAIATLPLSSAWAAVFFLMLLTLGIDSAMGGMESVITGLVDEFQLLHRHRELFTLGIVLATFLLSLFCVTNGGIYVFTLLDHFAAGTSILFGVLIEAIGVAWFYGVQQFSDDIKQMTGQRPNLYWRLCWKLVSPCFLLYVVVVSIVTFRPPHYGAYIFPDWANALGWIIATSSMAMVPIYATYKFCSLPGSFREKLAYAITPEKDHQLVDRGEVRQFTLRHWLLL
Description: Binding affinity for dopamine transporter was determined in vitro in rat brain using [3H]WIN-35428 s radioligand
Test [4] addresses T1, Muscarinic acetylcholine receptor M1 (Rattus norvegicus, UniProt P08482).
T1 sequence (P08482 whole entry): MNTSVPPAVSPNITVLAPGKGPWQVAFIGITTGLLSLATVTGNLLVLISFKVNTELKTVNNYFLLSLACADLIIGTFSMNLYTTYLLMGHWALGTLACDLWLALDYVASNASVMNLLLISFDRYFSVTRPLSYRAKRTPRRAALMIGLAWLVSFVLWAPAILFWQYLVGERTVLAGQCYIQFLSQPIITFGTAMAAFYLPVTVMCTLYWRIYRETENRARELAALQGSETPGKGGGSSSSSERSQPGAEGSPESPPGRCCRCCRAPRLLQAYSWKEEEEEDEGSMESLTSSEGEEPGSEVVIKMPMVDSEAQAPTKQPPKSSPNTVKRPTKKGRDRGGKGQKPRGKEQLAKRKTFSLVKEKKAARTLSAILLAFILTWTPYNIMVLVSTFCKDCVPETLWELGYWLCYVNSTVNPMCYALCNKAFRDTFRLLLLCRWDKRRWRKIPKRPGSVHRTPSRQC
Nature of the test: Binding affinity for muscarinic m1 receptor was determined in vitro in rat brain using [3H]pirenzepine as radioligand. The test is classed as tissue-based.

Sequence of Norepinephrine transporter (Q9WTR4 whole entry): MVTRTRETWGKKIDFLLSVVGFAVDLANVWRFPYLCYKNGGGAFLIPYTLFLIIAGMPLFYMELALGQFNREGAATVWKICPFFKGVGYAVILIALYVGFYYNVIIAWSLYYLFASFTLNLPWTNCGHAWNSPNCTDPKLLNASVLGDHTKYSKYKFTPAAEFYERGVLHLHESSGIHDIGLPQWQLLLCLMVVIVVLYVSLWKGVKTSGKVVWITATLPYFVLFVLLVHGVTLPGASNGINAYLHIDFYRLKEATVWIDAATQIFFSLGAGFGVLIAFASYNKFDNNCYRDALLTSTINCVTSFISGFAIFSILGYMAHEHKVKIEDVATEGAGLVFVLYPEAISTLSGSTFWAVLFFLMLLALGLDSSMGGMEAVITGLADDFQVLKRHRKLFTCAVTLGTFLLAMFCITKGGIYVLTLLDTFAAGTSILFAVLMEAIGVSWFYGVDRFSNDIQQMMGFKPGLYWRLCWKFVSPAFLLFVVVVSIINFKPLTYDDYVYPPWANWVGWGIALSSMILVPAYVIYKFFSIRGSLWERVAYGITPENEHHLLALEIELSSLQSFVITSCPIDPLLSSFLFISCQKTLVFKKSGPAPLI

Take `CCCCc1cccc(N2[C@@H]3CC[C@H]2C[C@H](OC(c2ccccc2)c2ccc(Cl)cc2)C3)c1` (some centres undefined): the Ki in test [1] stood at 737 nM; in test [2], 2.32 µM; in test [3] it was 53.3 nM; in test [4], 1430 nM.

Regarding `Clc1ccc(C(OC2CC3CCC(C2)N3)c2ccccc2)cc1` (centres undefined), the Ki in test [1] turned out to be 1320 nM; in test [2], 1.01 µM; in test [3] it was 36.8 nM; in test [4], 95.5 nM.

For `C=CCN1C2CCC1CC(OC(c1ccccc1)c1cccc(Cl)c1)C2` (centres undefined), the inhibitory constant (Ki) turned out to be 1200 nM in test [1], 1.23 µM in test [2], 33.6 nM in test [3] and 69.7 nM in test [4].

For `CN1C2CCC1CC(OC(c1ccccc1)c1ccc(Cl)cc1)C2` (centres undefined), the Ki in test [1] stood at 5120 nM; in test [2] it was 1.47 µM; in test [4], 7.9 nM.

`Clc1cccc(C(OC2CC3CCC(C2)N3)c2ccccc2)c1` (centres undefined): the Ki in test [1] came to 2100 nM; in test [2] it was 0.508 µM; in test [3], 26.2 nM; in test [4] it was 91.7 nM.

`CCCCc1cccc(N2[C@@H]3CC[C@H]2C[C@H](OC(c2ccc(Cl)cc2)c2ccc(Cl)cc2)C3)c1`: the inhibition constant (Ki) in test [1] worked out at 659 nM; in test [2] it was 4.95 µM; in test [3], 85 nM; in test [4], 3730 nM.

In the case of `CCCc1cccc(N2[C@@H]3CC[C@H]2C[C@H](OC(c2ccccc2)c2cccc(Cl)c2)C3)c1` (some centres undefined), the Ki in test [1] was 429 nM; in test [2] it was 1.81 µM; in test [3], 101 nM; in test [4], 337 nM.

`Clc1ccc(C(OC2CC3CCC(C2)N3Cc2ccccc2)c2ccccc2)cc1` (centres undefined): the Ki was 3530 nM in test [1], 13 µM in test [2], 365 nM in test [3] and 2560 nM in test [4].

In the case of `Clc1ccc(C(OC2CC3CCC(C2)N3Cc2ccccc2)c2ccc(Cl)cc2)cc1` (centres undefined), the Ki is 3610 nM in test [1], 7.66 µM in test [2], 399 nM in test [3] and 8630 nM in test [4].

Consider `Clc1ccc(C(OC2CC3CCC(C2)N3)c2ccc(Cl)cc2)cc1` (centres undefined), for which the Ki in test [1] stood at 727 nM; in test [2], 6.04 µM; in test [4] it was 649 nM.

Consider `C=CCN1C2CCC1CC(OC(c1ccccc1)c1ccc(Cl)cc1)C2` (centres undefined), for which the inhibition constant Ki stood at 2330 nM in test [1], 4.72 µM in test [2], 84.2 nM in test [3] and 127 nM in test [4].

Consider `CCCc1cccc(N2[C@H]3CC[C@]2(C)C[C@@H](OC(c2ccccc2)c2ccc(Cl)cc2)C3)c1` (some centres undefined), for which the inhibition constant Ki stood at 302 nM in test [1], 10.3 µM in test [2], 148 nM in test [3] and 397 nM in test [4].

As to `C=CCN1C2CCC1CC(OC(c1ccc(Cl)cc1)c1ccc(Cl)cc1)C2` (centres undefined), the inhibition constant Ki in test [1] was 568 nM; in test [2], 4.14 µM; in test [3], 54.6 nM; in test [4] it was 127 nM.

For `Clc1cccc(C(OC2CC3CCC(C2)N3Cc2ccccc2)c2ccccc2)c1` (centres undefined), the Ki in test [1] is 1680 nM; in test [2], 6.46 µM; in test [3], 191 nM; in test [4], 674 nM.

Take `CCCCc1cccc(N2C3CCC2CC(OC(c2ccccc2)c2cccc(Cl)c2)C3)c1` (centres undefined): the Ki in test [1] amounted to 591 nM; in test [2], 1.47 µM; in test [3], 153 nM; in test [4], 564 nM.

Regarding `CN1[C@@H]2CC[C@H]1C[C@@H](OC(c1ccccc1)c1cccc(Cl)c1)C2` (some centres undefined), the results for the inhibitory constant (Ki) in test [1] and in test [2] were 258 nM and 0.451 µM, respectively.

In the case of `CCCc1cccc(N2[C@@H]3CC[C@H]2C[C@H](OC(c2ccc(Cl)cc2)c2ccc(Cl)cc2)C3)c1`, the inhibition constant (Ki) was determined as 585 nM in test [1], 19.8 µM in test [2], 158 nM in test [3] and 3050 nM in test [4].
